From US8735414B2 (priority 2009, dated 2014)

Key:
[1] = tested on: bicistronic HCV replicon (replicon RNA, GenBank Accession No. AJ242654); test: HCV Replicon Assay; type: cell-based; conditions: Hepatitis C virus, 72 h, read-out: Replicon IC50

For `C[C@@H](NS(=O)(=O)c1ccc(-c2c(C(N)=O)c3cc(F)c(OC(F)F)cc3n2C2CCCC2)nc1)C(F)(F)F` [compound 718, 1-cyclopentyl-6-(difluoromethoxy)-5-fluoro-2-(5-{[(2R)-1,1,1-trifluoropropan-2-yl]sulfamoyl}pyridin-2-yl)-1H-indole-3-carboxamide], the IC50 [1] was less than 500 nM and the melting point was 218 to 220 °C.
`Cc1ccc2c(C#N)c(-c3ncc(S(=O)(=O)N[C@@H](C)C(F)(F)F)cn3)n(C3CCC3)c2c1` [compound 325, 2-(3-cyano-1-cyclobutyl-6-methyl-1H-indol-2-yl)-N-[(2S)-1,1,1-trifluoropropan-2-yl]pyrimidine-5-sulfonamide] gave an IC50 [1] of less than 500 nM and a melting point of 242 to 243 °C.
With `CC(C)NS(=O)(=O)c1cnc(-c2c(C#N)c3cc(F)ccc3n2C2CCCC2)nc1` [compound 603, 2-(3-cyano-1-cyclopentyl-5-fluoro-1H-indol-2-yl)-N-(propan-2-yl)pyrimidine-5-sulfonamide] the IC50 [1] was less than 500 nM and the melting point was 217 to 222 °C.
Compound `Cc1ccc2c(C#N)c(-c3ccc(S(=O)(=O)N[C@@H](C)C(F)(F)F)cn3)n(C3CCCC3)c2c1` [compound 352, 6-(3-cyano-1-cyclopentyl-6-methyl-1H-indol-2-yl)-N-[(2S)-1,1,1-trifluoropropan-2-yl]pyridine-3-sulfonamide] has an IC50 [1] of less than 500 nM and a melting point of 176 to 180 °C.
With `Cc1cc(-c2c(C#N)c3cc(F)c(OC(F)F)cc3n2C2CCC2)ncc1S(=O)(=O)N[C@@H](C)C(F)(F)F` [compound 822, 6-[3-cyano-1-cyclobutyl-6-(difluoromethoxy)-5-fluoro-1H-indol-2-yl]-4-methyl-N-[(2S)-1,1,1-trifluoropropan-2-yl]pyridine-3-sulfonamide] the IC50 [1] was less than 500 nM and the melting point was 204 to 210 °C.
With `C[C@H](NS(=O)(=O)c1cnc(-c2c(C#N)c3ccc(F)cc3n2C2CCCC2)nc1)C(F)(F)F` [compound 495, 2-(3-cyano-1-cyclopentyl-6-fluoro-1H-indol-2-yl)-N-[(2S)-1,1,1-trifluoropropan-2-yl]pyrimidine-5-sulfonamide] the IC50 [1] was 2000 to 5000 nM and the melting point was 217 to 219 °C.
Compound `C[C@H](NS(=O)(=O)c1cnc(-c2c(C#N)c3ccc(Cl)cc3n2C2CCCCC2)nc1)C(F)(F)F` [compound 516, 2-(6-chloro-3-cyano-1-cyclohexyl-1H-indol-2-yl)-N-[(2S)-1,1,1-trifluoropropan-2-yl]pyrimidine-5-sulfonamide] has an IC50 [1] of less than 500 nM and a melting point of 215 to 220 °C.
For `Cc1cc2c(cc1F)c(C(N)=O)c(-c1ccc(S(=O)(=O)N[C@H](C)C(F)(F)F)cn1)n2C1CCCCC1` [compound 716, 1-cyclohexyl-5-fluoro-6-methyl-2-(5-{[(2R)-1,1,1-trifluoropropan-2-yl]sulfamoyl}pyridin-2-yl)-1H-indole-3-carboxamide], the IC50 [1] was less than 500 nM and the melting point was 272 to 276 °C.
Compound `Cc1ccc2c(C#N)c(-c3ccc(S(=O)(=O)N[C@@H](C)C(F)(F)F)cn3)n(C3CCC3)c2c1` [compound 351, 6-(3-cyano-1-cyclobutyl-6-methyl-1H-indol-2-yl)-N-[(2S)-1,1,1-trifluoropropan-2-yl]pyridine-3-sulfonamide] has an IC50 [1] of less than 500 nM and a melting point of 203 to 208 °C.
With `Cc1ccc2c(c1)c(C#N)c(-c1ccc(S(=O)(=O)NC(C)(C)C(F)(F)F)cn1)n2C1CCC1` [compound 480, 6-(3-cyano-1-cyclobutyl-5-methyl-1H-indol-2-yl)-N-(1,1,1-trifluoro-2-methylpropan-2-yl)pyridine-3-sulfonamide] the IC50 [1] was less than 500 nM and the melting point was 182 to 187 °C.
For `C[C@@H](NS(=O)(=O)c1ccc(-c2c(C#N)c3ccc(F)cc3n2C2CCCC2)nc1)C(F)(F)F` [compound 218, 6-(3-cyano-1-cyclopentyl-6-fluoro-1H-indol-2-yl)-N-[(2R)-1,1,1-trifluoropropan-2-yl]pyridine-3-sulfonamide], the IC50 [1] was less than 500 nM and the melting point was 141 to 144 °C.
With `CC(C)n1c(-c2ccc(S(=O)(=O)N[C@@H](C)C3CC3)cn2)c(C#N)c2ccc(OC(F)(F)F)cc21` [compound 308, 6-[3-cyano-1-(propan-2-yl)-6-(trifluoromethoxy)-1H-indol-2-yl]-N-[(1S)-1-cyclopropylethyl]pyridine-3-sulfonamide] the IC50 [1] was 500 to 2000 nM and the melting point was 144 to 145 °C.
With `C[C@H](NS(=O)(=O)c1ccc(-c2c(C#N)c3cc(Cl)ccc3n2-c2ccccc2)nc1)C(F)(F)F` [compound 441, 6-(5-chloro-3-cyano-1-phenyl-1H-indol-2-yl)-N-[(2S)-1,1,1-trifluoropropan-2-yl]pyridine-3-sulfonamide] the IC50 [1] was less than 500 nM and the melting point was 210 to 212 °C.
`Cc1ccnc(-n2c(-c3ccc(S(=O)(=O)N[C@@H](C)C(F)(F)F)cn3)c(C#N)c3cc(F)c(C)cc32)c1` [compound 886, 6-[3-cyano-5-fluoro-6-methyl-1-(4-methylpyridin-2-yl)-1H-indol-2-yl]-N-[(2S)-1,1,1-trifluoropropan-2-yl]pyridine-3-sulfonamide] gave an IC50 [1] of less than 500 nM and a melting point of 200 to 204 °C.
In the case of `[2H]C([2H])([2H])c1cc2c(cc1F)c(C#N)c(-c1ccc(S(=O)(=O)N[C@@]([2H])(C)C(F)(F)F)cn1)n2C1CCC1` [compound 1114, 6-[3-cyano-1-cyclobutyl-5-fluoro-6-(1,1,1-trideuterium)methyl-1H-indol-2-yl]-N-[(2S)-1,1,1-trifluoro(2-deuterium)propan-2-yl]pyridine-3-sulfonamide], the IC50 [1] is reported as less than 500 nM and the melting point is reported as 213 to 215 °C.
`CCc1cc2c(cc1F)c(C(=O)O)c(-c1ncc(NS(=O)(=O)C(C)(C)C)cn1)n2C1CCCCC1` [compound 1028, 2-{5-[(tert-butylsulfonyl)amino]pyrimidin-2-yl}-1-cyclohexyl-6-ethyl-5-fluoro-1H-indole-3-carboxylic acid] showed an IC50 [1] of 2000 to 5000 nM and a melting point of 236 to 237 °C.
Work on `COc1ccc2c(C#N)c(-c3ncc(S(=O)(=O)NC(CF)CF)cn3)n(C3CCCC3)c2c1` [compound 231, 2-(3-cyano-1-cyclopentyl-6-methoxy-1H-indol-2-yl)-N-(1,3-difluoropropan-2-yl)pyrimidine-5-sulfonamide] yielded an IC50 [1] of less than 500 nM and a melting point of 232 to 234 °C.
`CC(C)NS(=O)(=O)c1cnc(-c2c(C#N)c3cc(Cl)ccc3n2C(C)C)nc1` [compound 120, 2-[5-chloro-3-cyano-1-(propan-2-yl)-1H-indol-2-yl]-N-(propan-2-yl)pyrimidine-5-sulfonamide] gave an IC50 [1] of less than 500 nM and a melting point of 202 to 220 °C.
`Cc1ccc2c(C#N)c(-c3ccc(S(=O)(=O)NC(CF)CF)cn3)n(C(C)C)c2c1` [compound 80, 6-[3-cyano-6-methyl-1-(propan-2-yl)-1H-indol-2-yl]-N-(1,3-difluoropropan-2-yl)pyridine-3-sulfonamide] showed an IC50 [1] of less than 500 nM and a melting point of 188 to 195 °C.
Compound `CC(C)n1c(-c2ncc(S(=O)(=O)N[C@@H](C)C3CC3)cn2)c(C#N)c2cc(F)ccc21` [compound 529, 2-[3-cyano-5-fluoro-1-(propan-2-yl)-1H-indol-2-yl]-N-[(1S)-1-cyclopropylethyl]pyrimidine-5-sulfonamide] has an IC50 [1] of less than 500 nM and a melting point of 176 to 179 °C.
In the case of `C[C@H](NS(=O)(=O)c1cnc(-c2c(C#N)c3ccc(CC(F)F)cc3n2CC2CC2)nc1)C(F)(F)F` [compound 622, 2-[3-cyano-1-(cyclopropylmethyl)-6-(2,2-difluoroethyl)-1H-indol-2-yl]-N-[(2S)-1,1,1-trifluoropropan-2-yl]pyrimidine-5-sulfonamide], the IC50 [1] is reported as less than 500 nM and the melting point is reported as 195 to 205 °C.
In the case of `N#Cc1c(-c2ncc(S(=O)(=O)NC(CF)CF)cn2)n(-c2ccccn2)c2cc(Cl)ccc12` [compound 450, 2-[6-chloro-3-cyano-1-(pyridin-2-yl)-1H-indol-2-yl]-N-(1,3-difluoropropan-2-yl)pyrimidine-5-sulfonamide], the IC50 [1] is reported as less than 500 nM and the melting point is reported as 234 to 235 °C.
For `C[C@H](NS(=O)(=O)c1ccc(-c2c(C#N)c3cc(F)c(Br)cc3n2-c2ncccn2)nc1)C(F)(F)F` [compound 895, 6-[6-bromo-3-cyano-5-fluoro-1-(pyrimidin-2-yl)-1H-indol-2-yl]-N-[(2S)-1,1,1-trifluoropropan-2-yl]pyridine-3-sulfonamide], the IC50 [1] was less than 500 nM and the melting point was 224 to 226 °C.
With `CC(C)(NS(=O)(=O)c1ccc(-c2c(C#N)c3ccc(OC(F)F)cc3n2C2CCCC2)nc1)C(F)(F)F` [compound 382, 6-[3-cyano-1-cyclopentyl-6-(difluoromethoxy)-1H-indol-2-yl]-N-(1,1,1-trifluoro-2-methylpropan-2-yl)pyridine-3-sulfonamide] the IC50 [1] was less than 500 nM and the melting point was 170 to 174 °C.
`CC(C)Sc1ccc2c(C#N)c(-c3ccc(S(=O)(=O)N4CCCCC4)cn3)n(C3CCC3)c2c1` [compound 22, 1-cyclobutyl-2-[5-(piperidin-1-ylsulfonyl)pyridin-2-yl]-6-(propan-2-ylsulfanyl)-1H-indole-3-carbonitrile] showed an IC50 [1] of 500 to 2000 nM and a melting point of 169 to 171 °C.
`N#Cc1ccc2c(C#N)c(-c3ccc(S(=O)(=O)NC(CF)CF)cn3)n(C3CCC3)c2c1` [compound 465, 6-(3,6-dicyano-1-cyclobutyl-1H-indol-2-yl)-N-(1,3-difluoropropan-2-yl)pyridine-3-sulfonamide] showed an IC50 [1] of less than 500 nM and a melting point of 203 to 204 °C.
Work on `Cc1ccc2c(C#N)c(-c3ccc(S(=O)(=O)NC(CF)CF)cn3)n(-c3ccccc3)c2c1` [compound 111, 6-(3-cyano-6-methyl-1-phenyl-1H-indol-2-yl)-N-(1,3-difluoropropan-2-yl)pyridine-3-sulfonamide] yielded an IC50 [1] of less than 500 nM and a melting point of 181 to 185 °C.
With `N#Cc1c(-c2ccc(S(=O)(=O)NC3(C(F)(F)F)CC3)cn2)n(C2CCC2)c2ccc(F)cc12` [compound 329, 6-(3-cyano-1-cyclobutyl-5-fluoro-1H-indol-2-yl)-N-[1-(trifluoromethyl)cyclopropyl]pyridine-3-sulfonamide] the IC50 [1] was less than 500 nM and the melting point was 176 to 183 °C.
